Reference: PubChem BioAssay AID256 (DTP/NCI, 2004)
Where “and” joins values, the source holds several entries; their conditions need not be identical. Equal entries are not always repeated. Inconclusive results and toxic doses are left out. How the source made its calls: active means survival T/C of 150% or more; inactive means T/C below 125% in these data. Non-standard residues stand in square brackets, D forms with d. Residues, ends and D or L forms follow the SMILES beside them. ξ: configuration not given here. *: point of attachment. ξF = NC(Cc1ccccc1)C(=O)O; ClAc = O=C(CCl)*

Tested on: CD2F1 mice, L1210 leukemia ip, survival T/C
Test: NCI In Vivo Anticancer Drug Screen. Data for tumor model L1210 Leukemia (intraperitoneal) in CD2F1 (CDF1) mice
Conditions: higher = longer survival
How it was run: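 Compound-dosed mice with transplantable tumor versus matched vehicle controls; endpoint ratio T/C reported.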

[1] = endpoint: mean survival time, dose: 100.0 mg/kg/injection, schedule: Q01DX001 (ip), vehicle: saline
[2] = endpoint: mean survival time, dose: 100.0 mg/kg/injection, schedule: Q04DX003 (ip), vehicle: saline
[3] = endpoint: mean survival time, dose: 200.0 mg/kg/injection, schedule: Q01DX001 (ip), vehicle: saline
[4] = endpoint: mean survival time, dose: 200.0 mg/kg/injection, schedule: Q04DX003 (ip), vehicle: saline
[5] = endpoint: mean survival time, dose: 400.0 mg/kg/injection, schedule: Q04DX003 (ip), vehicle: saline
[6] = endpoint: mean survival time, dose: 100.0 mg/kg/injection, schedule: Q01DX009 (ip), vehicle: saline
[7] = endpoint: mean survival time, dose: 200.0 mg/kg/injection, schedule: Q01DX009 (ip), vehicle: saline
[8] = endpoint: mean survival time, dose: 100.0 mg/kg/injection, schedule: Q04DX003 (ip), vehicle: saline with Tween-80
[9] = endpoint: mean survival time, dose: 200.0 mg/kg/injection, schedule: Q04DX003 (ip), vehicle: saline with Tween-80
[10] = endpoint: mean survival time, dose: 400.0 mg/kg/injection, schedule: Q04DX003 (ip), vehicle: saline with Tween-80
[11] = endpoint: mean survival time, dose: 100.0 mg/kg/injection, schedule: Q01DX001 (ip), vehicle: saline with Tween-80
[12] = endpoint: mean survival time, dose: 100.0 mg/kg/injection, schedule: Q01DX009 (ip), vehicle: saline with Tween-80
[13] = endpoint: mean survival time, dose: 200.0 mg/kg/injection, schedule: Q01DX001 (ip), vehicle: saline with Tween-80
[14] = endpoint: mean survival time, dose: 200.0 mg/kg/injection, schedule: Q01DX009 (ip), vehicle: saline with Tween-80
[15] = endpoint: mean survival time, dose: 400.0 mg/kg/injection, schedule: Q01DX009 (ip), vehicle: saline with Tween-80
[16] = endpoint: mean survival time, dose: 25.0 mg/kg/injection, schedule: Q04DX003 (ip), vehicle: saline with Tween-80
[17] = endpoint: mean survival time, dose: 50.0 mg/kg/injection, schedule: Q04DX003 (ip), vehicle: saline with Tween-80
[18] = endpoint: mean survival time, dose: 12.5 mg/kg/injection, schedule: Q01DX005 (ip), vehicle: distilled water + Tween-80
[19] = endpoint: mean survival time, dose: 25.0 mg/kg/injection, schedule: Q01DX005 (ip), vehicle: distilled water + Tween-80
[20] = endpoint: mean survival time, dose: 50.0 mg/kg/injection, schedule: Q01DX005 (ip), vehicle: distilled water + Tween-80
[21] = endpoint: mean survival time, dose: 100.0 mg/kg/injection, schedule: Q01DX005 (ip), vehicle: distilled water + Tween-80
[22] = endpoint: mean survival time, dose: 200.0 mg/kg/injection, schedule: Q01DX005 (ip), vehicle: distilled water + Tween-80
[23] = endpoint: mean survival time, dose: 50.0 mg/kg/injection, schedule: Q01DX009 (ip), vehicle: saline with Tween-80
[24] = endpoint: mean survival time, dose: 100.0 mg/kg/injection, schedule: Q04DX002 (ip), vehicle: saline with Tween-80
[25] = endpoint: mean survival time, dose: 200.0 mg/kg/injection, schedule: Q04DX002 (ip), vehicle: saline with Tween-80
[26] = endpoint: mean survival time, dose: 50.0 mg/kg/injection, schedule: Q01DX009 (ip), vehicle: saline

Measured: T/C

COc1ccc(NC(=O)Oc2ccc(Cl)cc2Cl)c(Cl)c1
inactive: endpoint: mean survival time, dose: 25.0 mg/kg/injection, schedule: Q01DX009 (ip), vehicle: Klucel (hydroxypropylcellulose) (HPC) 95 % of control | endpoint: mean survival time, dose: 50.0 mg/kg/injection, schedule: Q01DX009 (ip), vehicle: Klucel (hydroxypropylcellulose) (HPC) 95 % of control and 107 % of control | endpoint: mean survival time, dose: 100.0 mg/kg/injection, schedule: Q01DX009 (ip), vehicle: Klucel (hydroxypropylcellulose) (HPC) 98 % of control and 104 % of control | endpoint: mean survival time, dose: 100.0 mg/kg/injection, schedule: Q04DX003 (ip), vehicle: Klucel (hydroxypropylcellulose) (HPC) 98 % of control | endpoint: mean survival time, dose: 200.0 mg/kg/injection, schedule: Q01DX009 (ip), vehicle: Klucel (hydroxypropylcellulose) (HPC) 120 % of control and 102 % of control | endpoint: mean survival time, dose: 200.0 mg/kg/injection, schedule: Q04DX003 (ip), vehicle: Klucel (hydroxypropylcellulose) (HPC) 104 % of control | endpoint: mean survival time, dose: 400.0 mg/kg/injection, schedule: Q04DX003 (ip), vehicle: Klucel (hydroxypropylcellulose) (HPC) 112 % of control

OC(CN(C1CCCCC1)C1CCCCC1)c1ccc(Cl)c(Cl)c1 (stereo not given)
inactive: [1] 95 % of control | [2] 95 % of control | [3] 91 % of control | [4] 98 % of control | endpoint: mean survival time, dose: 400.0 mg/kg/injection, schedule: Q01DX001 (ip), vehicle: saline 96 % of control | [5] 101 % of control

O=C(O)CCC(=O)Nc1cccc(Oc2ccc([N+](=O)[O-])cc2[N+](=O)[O-])c1
inactive: [6] 94 % of control | [7] 94 % of control | endpoint: mean survival time, dose: 400.0 mg/kg/injection, schedule: Q01DX009 (ip), vehicle: saline 100 % of control

O=C(CCl)NCC(=O)NC(Cc1ccccc1)C(=O)O (stereo not given) (ClAc-Gly-[ξF]-OH)
inactive: [8] 98 % of control | [9] 96 % of control | [10] 96 % of control

Cc1ccc(C)c(NC(=O)Oc2ccc(F)cc2)c1
inactive: [11] 96 % of control | [12] 94 % of control and 97 % of control | [13] 86 % of control | [14] 101 % of control | endpoint: mean survival time, dose: 400.0 mg/kg/injection, schedule: Q01DX001 (ip), vehicle: saline with Tween-80 92 % of control | [15] 93 % of control and 103 % of control

CN(C)/C(=C\C(=O)c1ccccc1)c1ccccc1
inactive: [16] 104 % of control | [17] 108 % of control | [8] 93 % of control

O=C(CCC(=O)NO)NO
inactive: endpoint: mean survival time, dose: 100.0 mg/kg/injection, schedule: Q04DX002 (ip), vehicle: saline 101 % of control | endpoint: mean survival time, dose: 200.0 mg/kg/injection, schedule: Q04DX002 (ip), vehicle: saline 90 % of control

Cn1c(=O)c2c(nc(N3CCOCC3)n2CC(O)CF)n(C)c1=O (stereo not given)
inactive: [18] 95 % of control | [19] 98 % of control | [20] 103 % of control | [21] 97 % of control | [22] 104 % of control

Cc1ccc(O)c(N)c1
inactive: [8] 93 % of control | [9] 111 % of control

c1ccc(-c2nc(-c3nn[nH]n3)c3ccccc3n2)cc1
inactive: [1] 89 % of control | [3] 97 % of control

COc1ccccc1[As](=O)(O)CC(O)COc1ccc(Cl)cc1Cl (stereo not given)
inactive: endpoint: mean survival time, dose: 6.25 mg/kg/injection, schedule: Q04DX003 (ip), vehicle: saline 98 % of control | endpoint: mean survival time, dose: 12.5 mg/kg/injection, schedule: Q04DX003 (ip), vehicle: saline 96 % of control

CCNc1nc(NC(C)C)nc(SC)n1
inactive: [23] 104 % of control | [12] 101 % of control | [2] 97 % of control | [14] 117 % of control | [4] 101 % of control

CCCCC(Sc1n[nH]c(=O)[nH]c1=O)C(=O)OCC (stereo not given)
inactive: [18] 96 % of control | [19] 100 % of control | [20] 96 % of control | [21] 103 % of control | [22] 97 % of control

CCOC(=O)c1c(C)c2c(n1C)CC/C(=C\N1CCCCC1)C2=O
inactive: [24] 111 % of control | [25] 118 % of control | endpoint: mean survival time, dose: 400.0 mg/kg/injection, schedule: Q04DX002 (ip), vehicle: saline with Tween-80 96 % of control

CC12CCCC1=C1CCC3CC(OC(=O)c4ccccc4)CCC3(C)C1CC2 (stereo not given)
inactive: [8] 100 % of control | [9] 96 % of control | [10] 100 % of control

CN=C(N)c1ccc(N=C(N)c2ccc(C(N)=Nc3ccc(C(N)=NC)cc3)cc2)cc1
inactive: endpoint: median survival time, dose: 3.75 mg/kg/injection, schedule: Q08HX018 (ip), vehicle: water 117 % of control | endpoint: median survival time, dose: 10.0 mg/kg/injection, schedule: Q01DX001 (iv), vehicle: saline 95 % of control | endpoint: median survival time, dose: 10.0 micrograms per hour, schedule: Q#X X001 (iv), vehicle: saline 97 % of control

COCC1=Nc2c(ncnc2SCc2ccccc2)NN1
inactive: endpoint: mean survival time, dose: 100.0 mg/kg/injection, schedule: Q01DX001 (ip), vehicle: other 95 % of control

CCOC(=O)Cc1cccc(C)n1
inactive: [12] 104 % of control | [2] 94 % of control | [14] 98 % of control | [4] 92 % of control | [15] 100 % of control | [5] 94 % of control

CC/C=C/CC(=O)NCc1ccc(O)c(OC)c1
inactive: [11] 101 % of control | [13] 103 % of control

N#Cc1cccnc1.NCCNCCN.[Br-].[Pt+4]
inactive: endpoint: mean survival time, dose: 12.5 mg/kg/injection, schedule: Q01DX009 (ip), vehicle: saline 95 % of control | endpoint: mean survival time, dose: 25.0 mg/kg/injection, schedule: Q01DX009 (ip), vehicle: saline 103 % of control | [26] 101 % of control | [6] 98 % of control | [7] 98 % of control

CCOP(=O)(CC(=O)O)c1ccccc1 (stereo not given)
inactive: endpoint: mean survival time, dose: 25.0 mg/kg/injection, schedule: Q04DX002 (ip), vehicle: saline with Tween-80 96 % of control | endpoint: mean survival time, dose: 50.0 mg/kg/injection, schedule: Q04DX002 (ip), vehicle: saline with Tween-80 100 % of control | [24] 92 % of control

CCCCC(CC)CNCC(CC)CCCC (stereo not given)
inactive: [17] 93 % of control | [8] 91 % of control

COC1OC2COCOC2C(OS(=O)(=O)c2ccc(C)cc2)C1OS(=O)(=O)c1ccc(C)cc1 (stereo not given)
inactive: [23] 103 % of control | [12] 97 % of control | [14] 97 % of control

CCN(CC)C1=CC(=O)c2ccccc2C1=O
inactive: [16] 102 % of control | [17] 96 % of control | [8] 103 % of control

CC(C)[S][Pb]([c]1ccccc1)([c]1ccccc1)[c]1ccccc1
inactive: endpoint: mean survival time, dose: 1.25 mg/kg/injection, schedule: Q01DX009 (ip), vehicle: gum acacia 93 % of control | endpoint: mean survival time, dose: 2.5 mg/kg/injection, schedule: Q01DX009 (ip), vehicle: gum acacia 98 % of control | endpoint: mean survival time, dose: 5.0 mg/kg/injection, schedule: Q01DX009 (ip), vehicle: gum acacia 96 % of control

CN1CCN(C(=S)S)CC1
inactive: endpoint: mean survival time, dose: 12.5 mg/kg/injection, schedule: Q01DX009 (ip), vehicle: saline with Tween-80 100 % of control | endpoint: mean survival time, dose: 25.0 mg/kg/injection, schedule: Q01DX009 (ip), vehicle: saline with Tween-80 95 % of control | [23] 100 % of control

NC1(C(=O)O)CCCC1
inactive: [26] 98 % of control and 110 % of control | endpoint: mean survival time, dose: 50.0 mg/kg/injection, schedule: Q03DX003 (ip), vehicle: saline 110 % of control | endpoint: mean survival time, dose: 50.0 mg/kg/injection, schedule: Q04DX003 (ip), vehicle: saline 96 % of control | endpoint: mean survival time, dose: 100.0 mg/kg/injection, schedule: Q03DX003 (ip), vehicle: saline 98 % of control | [7] 92 % of control and 110 % of control

OC1(c2cccc(C(F)(F)F)c2)CCN(C2CC2c2ccccc2)CC1 (stereo not given)
inactive: [24] 97 % of control | [25] 95 % of control

CC1CN1C(=O)OCCOC(=O)N1CC1C (stereo not given)
inactive: endpoint: mean survival time, dose: 200.0 mg/kg/injection, schedule: Q01DX Z (ip), vehicle: saline 120 % of control | endpoint: mean survival time, dose: 300.0 mg/kg/injection, schedule: Q01DX Z (ip), vehicle: saline 117 % of control | endpoint: mean survival time, dose: 450.0 mg/kg/injection, schedule: Q01DX Z (ip), vehicle: saline 117 % of control

CCCCCCCC/C=C\CCCCCCCCNC(C)=O
inactive: [12] 89 % of control | [14] 89 % of control

CCCCN(CCCC)CC(C)(O)c1cc(-c2ccc(Cl)cc2)nc2c(C)cc(C)cc12 (stereo not given)
inactive: [8] 87 % of control | [9] 89 % of control
